Test results published in US20040161415A1, “Antitumor and antiviral medications and method for producing the same” (Lymphotec Inc., priority 2001, published 2004).

Tested on: EL-4 cells (mouse-derived cancer cells)
Assay: Measurement of antitumor effect: survival of C57BL/6 mice after intraperitoneal injection of EL-4 cells
Format: in vivo
Settings: for Number of surviving mice: C57BL/6 mice with 5×10^4 EL-4 cells i.p., reserpine 200 μg/kg s.c. every four days
Description: Lymphocytes were collected from the spleen of a C57BL/6 mouse by first aseptically taking out the spleen, and mashing up the spleen with a pair of tweezers in a culture dish having a culture solution containing blood serum from cattle embryo The solution including the flaked spleen was filtrated through a mesh to obtain lymphocyte suspension. The lymphocyte suspension was transferred by 50 ml to a centrifuging tube with a pipette and centrifuged at 1500 rpm for 10 minutes.
After centrifugation, supernatant fluid was removed, and a culture solution was added to obtain 2×10^6/ml of solution. The resultant solution thus obtained was transferred to a culture dish containing solid-phase anti-CD3 antibody from a mouse and further cultivated for 4 days on a continuing basis. The resultant solution was farther rinsed with phosphate buffer (occasionally abbreviated as PBS) two times, thus to prepare lymphocytes before heating treatment.
After cultivating EL-4 cells (mouse-derived cancer cells) at 37° C. in an atmosphere of 5% carbon dioxide gas in a flask for 3 days, 50 ml of culture solution containing El-4 cells were transferred to a centrifuging tube with a pipette and centrifuged at 1500 rpm for 10 minutes. After centrifugation, supernatant fluid was removed, and pH-adjusted RPMI1640 culture medium was added thereto, and brought into suspension. Then, the resultant solution thus obtained was again centrifuged at 1500 rpm for 10 minutes, and hereafter, supernatant fluid was removed. Again supernatant fluid was removed, and the pH-adjusted RPMI1640 culture medium prepared previously was added thereto, and brought into suspension. Into the abdominal cavity of each C57BL/6 mouse, 5×10^4 of EL-4 cells in the ultimate solution resultantly obtained was injected to introduce the cancer cells thereinto.
After introducing the EL-4 cells, 3×10^6 of activated lymphocytes treated with heat, which were prepared in Example 1 described above were administered intravenously with administering subcutaneously reserpine thereto. To each mouse of a subject group, reserpine was subcutaneously given by 200 μg/kg every four days together with the […] lymphocytes, and to another control group composed of twelve mice, only the reserpine was given by 200 μg/kg every four days. The reserpine of Rauwolfia serpentina extract was used in this embodiment, but it may be made from a compound extracted from Rauwolfia serpentina or other compounds. Although the reserpine solely may be used as mentioned above, but it may be used as a secondary agent with other primary additives.

## COC(=O)[C@H]1[C@H]2C[C@@H]3c4[nH]c5cc(OC)ccc5c4CCN3C[C@H]2C[C@@H](OC(=O)c2cc(OC)c(OC)c(OC)c2)[C@@H]1OC [Resrpine, reserpine]
Lapsed days 23
  Number of surviving mice: 12
Lapsed days 24
  Number of surviving mice: 12
Lapsed days 25
  Number of surviving mice: 12
Lapsed days 26
  Number of surviving mice: 11
Lapsed days 27
  Number of surviving mice: 11
Lapsed days 28
  Number of surviving mice: 11
Lapsed days 29
  Number of surviving mice: 9
Lapsed days 30
  Number of surviving mice: 8
Lapsed days 31
  Number of surviving mice: 8
Lapsed days 32
  Number of surviving mice: 6
Lapsed days 33
  Number of surviving mice: 6
Lapsed days 34
  Number of surviving mice: 4
Lapsed days 35
  Number of surviving mice: 3
Result in words, summary of Table 1, EL-4 bearing C57BL/6 mice
  antitumor effect (survival rate of mice observed with time): brings about an antitumor effect
